Assays:
Assay in all cases: relative viability (nuclei count vs DMSO), 5 days (fraction); higher = more cells survive
NCI-H1563 = tested on: NCI-H1563
Procedure, shortened: (§1)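 For relative viability, nuclei counts in treated wells were divided by those in vehicle wells. Lung cancer cell lines had been pin-tool dosed in 1536-well plates the day after seeding and cultured for 5 days, then fixed and stained in one step (final 0.05% Triton X-100, 1% formaldehyde, 1 ug/ml Hoechst) and imaged at 4×. Doses were one drug alone or a fixed anchor-drug dose plus five library-drug doses (not always all listed) in √10 steps, and values are duplicate-plate medians.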

ABC-1 = tested on: ABC-1
Procedure, shortened: as §1

NCI-H520 = tested on: NCI-H520
Procedure, shortened: as §1

NCI-H1734 = tested on: NCI-H1734
Procedure, shortened: as §1

H3255 = tested on: H3255
Procedure, shortened: as §1

PC-14 = tested on: PC-14
Procedure, shortened: as §1

NCI-H1650 = tested on: NCI-H1650
Procedure, shortened: as §1

EKVX = tested on: EKVX
Procedure, shortened: as §1

RERF-LC-KJ = tested on: RERF-LC-KJ
Procedure, shortened: as §1

LK-2 = tested on: LK-2
Procedure, shortened: as §1

SW 1573 = tested on: SW 1573
Procedure, shortened: as §1

NCI-H1437 = tested on: NCI-H1437
Procedure, shortened: as §1

NCI-H2228 = tested on: NCI-H2228
Procedure, shortened: as §1

NCI-H2405 = tested on: NCI-H2405
Procedure, shortened: as §1

PC-3 [JPC-3] = tested on: PC-3 [JPC-3]
Procedure, shortened: as §1

HCC-15 = tested on: HCC-15
Procedure, shortened: as §1

NCI-H322M = tested on: NCI-H322M
Procedure, shortened: as §1

HCC-827 = tested on: HCC-827
Procedure, shortened: as §1

NCI-H661 = tested on: NCI-H661
Procedure, shortened: as §1

CAL-12T = tested on: CAL-12T
Procedure, shortened: as §1

COR-L23 = tested on: COR-L23
Procedure, shortened: as §1

NCI-H1355 = tested on: NCI-H1355
Procedure, shortened: as §1

## Oc1nc(-c2ccc(C(F)(F)F)cc2)nc2c1CSCC2 [XAV939] + CS(=O)(=O)CCNCc1ccc(-c2ccc3ncnc(Nc4ccc(OCc5cccc(F)c5)c(Cl)c4)c3c2)o1 [Lapatinib] (partner 2 µM)
NCI-H1563; first compound 0.08 µM
  relative viability: 1.15
NCI-H1563; first compound 0.253 µM
  relative viability: 0.852
NCI-H1563; first compound 0.8 µM
  relative viability: 0.809
NCI-H1563; first compound 2.53 µM
  relative viability: 0.773
ABC-1; first compound 0.08 µM
  relative viability: 1.34
ABC-1; first compound 0.253 µM
  relative viability: 1.08
ABC-1; first compound 0.8 µM
  relative viability: 1.26
ABC-1; first compound 2.53 µM
  relative viability: 0.657
NCI-H520; first compound 0.08 µM
  relative viability: 0.83
NCI-H520; first compound 0.253 µM
  relative viability: 0.78
NCI-H520; first compound 0.8 µM
  relative viability: 0.792
NCI-H520; first compound 2.53 µM
  relative viability: 0.682
NCI-H1734; first compound 0.08 µM
  relative viability: 1.34
NCI-H1734; first compound 0.253 µM
  relative viability: 0.9
NCI-H1734; first compound 0.8 µM
  relative viability: 0.814
NCI-H1734; first compound 2.53 µM
  relative viability: 0.986
H3255; first compound 0.08 µM
  relative viability: 0.19
H3255; first compound 0.253 µM
  relative viability: 0.238
H3255; first compound 0.8 µM
  relative viability: 0.233
H3255; first compound 2.53 µM
  relative viability: 0.186
PC-14; first compound 0.08 µM
  relative viability: 0.301
PC-14; first compound 0.253 µM
  relative viability: 0.307
PC-14; first compound 0.8 µM
  relative viability: 0.262
PC-14; first compound 2.53 µM
  relative viability: 0.266
NCI-H1650; first compound 0.08 µM
  relative viability: 0.762
NCI-H1650; first compound 0.253 µM
  relative viability: 0.726
NCI-H1650; first compound 0.8 µM
  relative viability: 0.836
NCI-H1650; first compound 2.53 µM
  relative viability: 0.454
EKVX; first compound 0.08 µM
  relative viability: 0.193
EKVX; first compound 0.253 µM
  relative viability: 0.181
EKVX; first compound 0.8 µM
  relative viability: 0.162
EKVX; first compound 2.53 µM
  relative viability: 0.125
RERF-LC-KJ; first compound 0.08 µM
  relative viability: 0.833
RERF-LC-KJ; first compound 0.253 µM
  relative viability: 0.702
RERF-LC-KJ; first compound 0.8 µM
  relative viability: 0.672
RERF-LC-KJ; first compound 2.53 µM
  relative viability: 0.609
LK-2; first compound 0.08 µM
  relative viability: 0.979
LK-2; first compound 0.253 µM
  relative viability: 0.981
LK-2; first compound 0.8 µM
  relative viability: 1.04
LK-2; first compound 2.53 µM
  relative viability: 0.928
SW 1573; first compound 0.08 µM
  relative viability: 1.11
SW 1573; first compound 0.253 µM
  relative viability: 0.908
SW 1573; first compound 0.8 µM
  relative viability: 1.07
SW 1573; first compound 2.53 µM
  relative viability: 0.983
NCI-H1437; first compound 0.08 µM
  relative viability: 0.938
NCI-H1437; first compound 0.253 µM
  relative viability: 0.709
NCI-H1437; first compound 0.8 µM
  relative viability: 0.772
NCI-H1437; first compound 2.53 µM
  relative viability: 0.639
NCI-H2228; first compound 0.08 µM
  relative viability: 1.03
NCI-H2228; first compound 0.253 µM
  relative viability: 0.922
NCI-H2228; first compound 0.8 µM
  relative viability: 0.848
NCI-H2228; first compound 2.53 µM
  relative viability: 0.928
NCI-H2405; first compound 0.08 µM
  relative viability: 1.25
NCI-H2405; first compound 0.253 µM
  relative viability: 1.02
NCI-H2405; first compound 0.8 µM
  relative viability: 0.972
NCI-H2405; first compound 2.53 µM
  relative viability: 1.1
PC-3 [JPC-3]; first compound 0.08 µM
  relative viability: 0.454
PC-3 [JPC-3]; first compound 0.253 µM
  relative viability: 0.417
PC-3 [JPC-3]; first compound 0.8 µM
  relative viability: 0.435
PC-3 [JPC-3]; first compound 2.53 µM
  relative viability: 0.443
HCC-15; first compound 0.08 µM
  relative viability: 1.02
HCC-15; first compound 0.253 µM
  relative viability: 0.774
HCC-15; first compound 0.8 µM
  relative viability: 0.829
HCC-15; first compound 2.53 µM
  relative viability: 0.806
NCI-H322M; first compound 0.08 µM
  relative viability: 0.602
NCI-H322M; first compound 0.253 µM
  relative viability: 0.57
NCI-H322M; first compound 0.8 µM
  relative viability: 0.599
NCI-H322M; first compound 2.53 µM
  relative viability: 0.426
HCC-827; first compound 0.08 µM
  relative viability: 0.194
HCC-827; first compound 0.253 µM
  relative viability: 0.178
HCC-827; first compound 0.8 µM
  relative viability: 0.238
HCC-827; first compound 2.53 µM
  relative viability: 0.187
NCI-H661; first compound 0.08 µM
  relative viability: 0.553
NCI-H661; first compound 0.253 µM
  relative viability: 0.482
NCI-H661; first compound 0.8 µM
  relative viability: 0.595
NCI-H661; first compound 2.53 µM
  relative viability: 0.372
CAL-12T; first compound 0.08 µM
  relative viability: 0.729
CAL-12T; first compound 0.253 µM
  relative viability: 0.664
CAL-12T; first compound 0.8 µM
  relative viability: 0.525
CAL-12T; first compound 2.53 µM
  relative viability: 0.426
COR-L23; first compound 0.08 µM
  relative viability: 1.04
COR-L23; first compound 0.253 µM
  relative viability: 0.924
COR-L23; first compound 0.8 µM
  relative viability: 0.932
COR-L23; first compound 2.53 µM
  relative viability: 0.89
NCI-H1355; first compound 0.08 µM
  relative viability: 1.02
NCI-H1355; first compound 0.253 µM
  relative viability: 0.857
NCI-H1355; first compound 0.8 µM
  relative viability: 0.875
NCI-H1355; first compound 2.53 µM
  relative viability: 0.729

— the supplement of paper PMC10307832
